Results published in patent publication US6365616B1, “Methimazole derivatives and tautomeric cyclic thiones to treat autoimmune diseases” (Sentron Medical, Inc., priority 1998, dated 2002).
Read-outs that look alike come from different tables or passages of the source.

Key:
[1] = tested on: silencer complex with Fragment 140 (upstream silencer/enhancer) of the MHC Class I PD1 5′-flanking region; assay: Gel shift (EMSA) with upstream 140 class I probe, extracts from treated FRTL-5 cells; type: cell-based, rat; details: 5H cells treated 48 hours
Experimental: FRTL-5 rat thyroid cells (Kohn, L. D., et al., U.S. Pat. No. 4,609,622 (1986); Ambesi-Impiombato E S., U.S. Pat. No. 4,608,341 (1986)) are grown as described below. […] Their doubling time was approximately 36±6 hours; and, after 6 days in medium with no TSH (5H) and 5.0% serum, […] TSH elevated iodide uptake 8-10 fold and thymidine incorporation>10 fold. Cells were diploid, between their 5th and 25th passage in most experiments, and were routinely grown in Coon's modified F12 medium supplemented with 5 % calf serum, 1 mmol/L nonessential amino acids (GIBCO) and a mixture of 6 hormones (6H medium): TSH (1×10^−10 M), insulin (10 μg/ml), hydrocortisone 0.4 ng/ml, human transferrin (5 μg/ml), somatostatin ([…]) and glycyl-L-histidyl-L-lysine acetate (10 ng/ml) (Kohn, L. D. et al., U.S. Pat. No. 4,609,622 (1986); Ambesi-Impiombato, E. S., U.S. Pat. No. 4,608,341 (1986)). They were passaged every 7-10 days and provided fresh media every 2 or 3 days. In individual experiments, cells were grown to near confluency in 6H medium then, in some experiments, were shifted to medium with no TSH (5H), to medium with neither TSH and or insulin (4H), or to medium with no TSH, no insulin and no hydrocortisone (3H) plus either 5% or 0.2% serum for 4-7 days before use.
Cells were grown in 6H medium with 5 % calf serum for 6-7 days to 70-80% confluence, then shifted to 5H medium with 5 % calf serum for 5 days. TSH (1×10^−10 M), gamma-interferon (100 U/ml), MMI (5 mM), and different concentrations of MMI derivatives or tautomeric cyclic thiones (0.0001 to 10 mM) were added as appropriate for […]. Cells were then harvested and extracts were made by a modification of a method of Dignam, J., et al. Methods in Enzymology, 101:582-598 (1983). In brief, cells were harvested by scraping after being washed twice with cold phosphate-buffer saline (PBS). Subsequently they were pelleted, washed in cold PBS and then pelleted again. The pellet was resuspended in Dignam buffer C (20 mM Hepes buffer at pH 7.9, 1.5 mM MgCl2, 0.42 M NaCl, 25% glycerol, 0.5 mM dithiotreitol (DTT), 0.5 mM phenylmethylsulfonylfluoride (PMSF), 1 […] pepstatin). The final NaCl concentration was adjusted on the basis of cell pellet volume to 0.42 M and cells were lysed by repeated cycles of freezing and thawing. Extracts were then centrifuged at 10,000×g at 4° C. for 20 min. The supernatant was recovered, aliquoted and stored at −70° C.
Binding reactions were performed in a volume of 20 μl for 30 min at room temperature. The typical reaction mixture contained 1.5 fmol of ^32P DNA, 3 μg of cell extracts, 1 to 3 μg of poly (dI-dC) in 10 mM Tris-Cl (pH 7.9), 1 mM MgCl2, 1 mM DTT, 1 mM ethylenediamine tetra acetic acid (EDTA), and 5 % glycerol. After incubation, reaction mixtures were subjected to electrophoresis in 4% polyacrylamide gels for 90-120 min at 160 V in 0.5× TBE (Sambrook, J., et al., Molecular Cloning: A Laboratory Manual, 2nd ed. Cold Spring Harbor Press, NY, 2: 11.23-11.44 (1989)), then dried and autoradiographed. Probes were labeled with [α32P] deoxy CTP by Klenow enzyme (In Vitro labeling kit, Amersham) following the manufacturer's instructions, or by [γ^32P] ATP using T4 polynucleotide kinase. Labeled probes were then purified either through G-50 columns (5 prime→3 Prime) or on an 8% polyacrylamide gel.
The effect of the addition of 5 mM MMI to cells for 48 hours prior to extract preparation from cells maintained in SH medium is shown in lane 1 of FIG. 2. The effect of the addition of 1 mM concentration of representative MMI derivatives to cells maintained in 5H medium for 48 hours prior to extract preparation is shown in lanes 3 to 8 in FIG. 2. The structures and names of the representative numbered compounds are in Table 1. The MMI or its derivatives decrease the silencer complex. The decrease can be quantitated by densitometry of autoradiograms or phosphoimaging on a Bas 1500 imager (for example). […]

MHC class I RNA = assay: Northern analysis of MHC class I RNA levels in FRTL-5 cells; type: cell-based, rat; details: for inhibition at 1000 µM / inhibition at 5000 µM / inhibition at 100 µM: Rattus norvegicus
[2] = 100 μM, 100 U/ml γ-interferon, 6H medium (TSH), 40 hours
[3] = 100 μM, basal, 5H medium, 40 hours
[4] = FRTL-5, 1 mM, 100 U/ml γ-interferon, 6H medium (TSH), 40 hours, read-out: % inhibition of class I RNA expression (γ-interferon-treated)
[5] = FRTL-5, 1 mM, basal, 5H medium, 40 hours, read-out: % inhibition of class I RNA expression (basal)
[6] = FRTL-5, 5 mM, 100 U/ml γ-interferon, 6H medium (TSH), 40 hours, read-out: % inhibition of class I RNA expression (γ-interferon-treated)
[7] = FRTL-5, 5 mM, basal, 5H medium, 40 hours, read-out: % inhibition of class I RNA expression (basal)
[8] = FRTL-5, 100 μM, 100 U/ml γ-interferon, 6H medium (TSH), 40 hours, read-out: % inhibition of class I RNA expression (γ-interferon-treated)
[9] = FRTL-5, 100 μM, basal, 5H medium, 40 hours, read-out: % inhibition of class I RNA expression (basal)
[10] = 1 mM, 100 U/ml γ-interferon, 6H medium (TSH), 40 hours
[11] = 1 mM, basal, 5H medium, 40 hours
[12] = 5 mM, 100 U/ml γ-interferon, 6H medium (TSH), 40 hours

Cc1cnc(S)n1C [Compound 9, 5-Methylmethimazole]
% inhibition of control silencer complex formation ([1]; 10 μM): 0% | % inhibition of control silencer complex formation ([1]; 100 μM): 0% | % inhibition of control silencer complex formation ([1]; 1 mM): 15 ± 15% | % inhibition of control silencer complex formation ([1]; 5 mM): 30 ± 20% | % inhibition of class I RNA expression (γ-interferon-treated) (MHC class I RNA; [2]): None | % inhibition of class I RNA expression (basal) (MHC class I RNA; [3]): None | inhibition at 1000 µM (MHC class I RNA; [4]): 9 ± 5% | inhibition at 1000 µM (MHC class I RNA; [5]): 15 ± 14% | inhibition at 5000 µM (MHC class I RNA; [6]): 24 ± 6% | inhibition at 5000 µM (MHC class I RNA; [7]): 30 ± 5%

Cc1ncc([N+](=O)[O-])n1CCO [Compound 2, 2-Methyl-5-nitro-1-imidazole ethanol]
% inhibition of control silencer complex formation ([1]; 10 μM): 0% | % inhibition of control silencer complex formation ([1]; 100 μM): 0% | % inhibition of control silencer complex formation ([1]; 1 mM): 45 ± 19% | % inhibition of control silencer complex formation ([1]; 5 mM): 86 ± 15% | % inhibition of class I RNA expression (γ-interferon-treated) (MHC class I RNA; [2]): None | % inhibition of class I RNA expression (basal) (MHC class I RNA; [3]): None | inhibition at 1000 µM (MHC class I RNA; [4]): 42 ± 5% | inhibition at 1000 µM (MHC class I RNA; [5]): 49 ± 6% | inhibition at 5000 µM (MHC class I RNA; [6]): 68 ± 13% | inhibition at 5000 µM (MHC class I RNA; [7]): 63 ± 14%

CSc1nccn1C [Compound 7, S-Methylmethimazole]
% inhibition of control silencer complex formation ([1]; 10 μM): 0% | % inhibition of control silencer complex formation ([1]; 100 μM): 10 ± 13% | % inhibition of control silencer complex formation ([1]; 1 mM): 50 ± 9% | inhibition at 100 µM (MHC class I RNA; [8]): 14 ± 11% | inhibition at 100 µM (MHC class I RNA; [9]): 10 ± 8% | inhibition at 1000 µM (MHC class I RNA; [4]): 40 ± 15% | inhibition at 1000 µM (MHC class I RNA; [5]): 46 ± 9% | inhibition at 5000 µM (MHC class I RNA; [6]): 69 ± 6%

Cn1c(-c2ccccc2)cnc1S [Compound 10, 5-Phenylmethimazole]
% inhibition of control silencer complex formation ([1]; 10 μM): 25% | % inhibition of control silencer complex formation ([1]; 100 μM): 60 ± 10% | % inhibition of control silencer complex formation ([1]; 1 mM): 85 ± 15% | inhibition at 100 µM (MHC class I RNA; [8]): 42 ± 14% | inhibition at 100 µM (MHC class I RNA; [9]): 60 ± 8% | inhibition at 1000 µM (MHC class I RNA; [4]): 60 ± 12% | inhibition at 1000 µM (MHC class I RNA; [5]): 85 ± 16%

Sc1ncc[nH]1 [Compound 3, 2-Mercaptoimidazole]
% inhibition of control silencer complex formation ([1]; 10 μM): 0% | % inhibition of control silencer complex formation ([1]; 100 μM): 0% | % inhibition of control silencer complex formation ([1]; 1 mM): 0% | % inhibition of control silencer complex formation ([1]; 5 mM): 0% | % inhibition of class I RNA expression (γ-interferon-treated) (MHC class I RNA; [10]): None | % inhibition of class I RNA expression (basal) (MHC class I RNA; [11]): None | % inhibition of class I RNA expression (γ-interferon-treated) (MHC class I RNA; [12]): None | % inhibition of class I RNA expression (basal) (MHC class I RNA; 5 mM, basal, 5H medium, 40 hours): None

Cn1ccn(C)c1=S [Compound 8, N-Methylmethimazole]
% inhibition of control silencer complex formation ([1]; 10 μM): 0% | % inhibition of control silencer complex formation ([1]; 100 μM): 18 ± 18% | % inhibition of control silencer complex formation ([1]; 1 mM): 70 ± 14% | % inhibition of class I RNA expression (γ-interferon-treated) (MHC class I RNA; [2]): 9 ± 7% | % inhibition of class I RNA expression (basal) (MHC class I RNA; [3]): 14 ± 12% | % inhibition of class I RNA expression (γ-interferon-treated) (MHC class I RNA; [10]): 49 ± 13% | % inhibition of class I RNA expression (basal) (MHC class I RNA; [11]): 60 ± 6% | % inhibition of class I RNA expression (γ-interferon-treated) (MHC class I RNA; [12]): 73 ± 12%

Sc1nc2ccccc2[nH]1 [Compound 4, 2-Mercaptobenzimidazole]
% inhibition of control silencer complex formation ([1]; 10 μM): 0% | % inhibition of control silencer complex formation ([1]; 100 μM): 5% | % inhibition of control silencer complex formation ([1]; 1 mM): 75 ± 10% | % inhibition of control silencer complex formation ([1]; 5 mM): Insol | % inhibition of class I RNA expression (γ-interferon-treated) (MHC class I RNA; [2]): None | % inhibition of class I RNA expression (basal) (MHC class I RNA; [3]): None | inhibition at 1000 µM (MHC class I RNA; FRTL-5, 40 h, read-out: % inhibition of class I RNA expression (basal)): 34 ± 13% | inhibition at 1000 µM (MHC class I RNA; FRTL-5, 40 h, read-out: % inhibition of class I RNA expression (γ-interferon-treated)): 37 ± 10%

Cc1ccc2[nH]c(S)nc2c1 [Compound 6, 2-Mercapto-5-methylbenzimidazole]
% inhibition of control silencer complex formation ([1]; 10 μM): 0% | % inhibition of control silencer complex formation ([1]; 100 μM): 0% | % inhibition of control silencer complex formation ([1]; 1 mM): 20 ± 18% | % inhibition of control silencer complex formation ([1]; 5 mM): Insol | % inhibition of class I RNA expression (γ-interferon-treated) (MHC class I RNA; [2]): None | % inhibition of class I RNA expression (basal) (MHC class I RNA; [3]): None | inhibition at 1000 µM (MHC class I RNA; [4]): 22 ± 16% | inhibition at 1000 µM (MHC class I RNA; [5]): 23 ± 15% | inhibition at 5000 µM (MHC class I RNA; [6]): 23 ± 11%

Cn1ccnc1S [Compound 1, 1-Methylimidazole-2-thiol]
% inhibition of control silencer complex formation ([1]; 10 μM): 0% | % inhibition of control silencer complex formation ([1]; 100 μM): 0% | % inhibition of control silencer complex formation ([1]; 1 mM): 20 ± 15% | % inhibition of control silencer complex formation ([1]; 5 mM): 75 ± 12% | % inhibition of class I RNA expression (γ-interferon-treated) (MHC class I RNA; [2]): None | % inhibition of class I RNA expression (basal) (MHC class I RNA; [3]): None | inhibition at 1000 µM (MHC class I RNA; [4]): 29 ± 7% | inhibition at 1000 µM (MHC class I RNA; [5]): 25 ± 10% | inhibition at 5000 µM (MHC class I RNA; [6]): 52 ± 15% | inhibition at 5000 µM (MHC class I RNA; [7]): 42 ± 8%

O=[N+]([O-])c1ccc2[nH]c(S)nc2c1 [Compound 5, 2-Mercapto-5-nitrobenzimidazole]
% inhibition of control silencer complex formation ([1]; 10 μM): 0% | % inhibition of control silencer complex formation ([1]; 100 μM): 0% | % inhibition of control silencer complex formation ([1]; 1 mM): 0% | % inhibition of control silencer complex formation ([1]; 5 mM): Insol | % inhibition of class I RNA expression (γ-interferon-treated) (MHC class I RNA; [2]): None | % inhibition of class I RNA expression (basal) (MHC class I RNA; [3]): None | inhibition at 1000 µM (MHC class I RNA; [4]): 19 ± 7% | inhibition at 1000 µM (MHC class I RNA; [5]): 32 ± 11%
